Reference: patent publication US20060063784A1, “Method of using substituted pyrazolo [1,5-a] pyrimidines” (priority 2004, published 2006)
Like-named read-outs stand apart in the source and are kept apart here.

Legend:
[1] = tested on: LoVo Colon cell line; assay: Cytotoxicity assay using LoVo colon cell line, SRB; assay type: cell-based; conditions: Homo sapiens, 96 h, read-out: Inhibition of LoVo
Procedure, shortened: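 Growth inhibition read by sulforhodamine B after 4-day compound exposure at 37 °C. Colon LoVo cells plated at 4000 per well in RPMI/10% FBS a day earlier; doses ranged 5 pM-20 μM or 170 pg/ml-10 μg/ml. IC50 is the concentration halving proliferation versus untreated wells.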

[2] = tested on: 80S14 (p21-deficient) cells; assay: Cytotoxicity assay using isogenic cell lines: IC50 in 80S14 (p21-deficient) cells, SRB; assay type: cell-based, human; conditions: Homo sapiens
Procedure, shortened: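 IC50 is the concentration halving proliferation relative to untreated controls, read from SRB absorbance (560 nm) after TCA fixation. Test agent dilutions (5 pM–50 μM or 170 pg/ml–10 μg/ml) were left on p21-deficient 80S14 cells (12,000/well, pre-incubated overnight) for 5 days at 37 °C.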

[3] = Cellular activity in LoVo cell, 4 days incubation, SRB
[4] = 120 h, 80S14 (p21-deficient) cells, 5 days, SRB, class symbols, read-out: IC50 for 80S14

| Structure (SMILES) | IC50 [1, 3] | IC50 [2, 4] | IC50 ([1]; LoVo) | IC50 ([2]; 80S14, 120 h, read-out: IC50 for 80S14 (uM)) |
| --- | --- | --- | --- | --- |
| O=C(Nc1cc(-c2ccnc3c(C(=O)c4cccs4)cnn23)ccc1F)c1ccccc1F [Example 375, 2-fluoro-N-{2-fluoro-5-[3-(thien-2-ylcarbonyl)pyrazolo[1,5-a]pyrimidin-7-yl]phenyl}benzamide] | < 100 nM | < 1 µM | – | – |
| O=C(Nc1cc(-c2ccnc3c(C(=O)c4cccs4)cnn23)ccc1F)c1ccccc1Cl [Example 376, 2-Chloro-N-{2-fluoro-5-[3-(thien-2-ylcarbonyl)pyrazolo[1,5-a]pyrimidin-7-yl]phenyl}benzamide] | < 100 nM | < 1 µM | – | – |
| Cc1ccccc1CNc1cccc(-c2ccnc3c(C(=O)c4cccs4)cnn23)c1 [Example 377, (7-{3-[(2-Methylbenzyl)amino]phenyl}pyrazolo[1,5-a]pyrimidin-3-yl)(thien-2-yl)methanone] | 100 to 1000 nM | 1 to 10 µM | – | – |
| CC(CNc1cccc(-c2ccnc3c(C(=O)c4cccs4)cnn23)c1)c1ccccc1 (stereo not shown) [Example 378, (7-{3-[(2-Phenylpropyl)amino]phenyl}pyrazolo[1,5-a]pyrimidin-3-yl)(thien-2-yl)methanone] | 1000 to 20000 nM | 1 to 10 µM | – | – |
| O=C(c1cccs1)c1cnn2c(-c3cccc(NCC4CCCCC4)c3)ccnc12 [Example 379, (7-{3-[(Cyclohexylmethyl)amino]phenyl)pyrazolo[1,5-a]pyrimidin-3-yl)(thien-2-yl)methanone] | < 100 nM | < 1 µM | – | – |
| CCCCNc1cccc(-c2ccnc3c(C(=O)c4cccs4)cnn23)c1 [Example 380, {7-[3-(Butylamino)phenyl]pyrazolo[1,5-a]pyrimidin-3-yl}(thien-2-yl)methanone] | < 100 nM | < 1 µM | – | – |
| O=C(Nc1cc(-c2ccnc3c(C(=O)c4cccs4)cnn23)ccc1F)OCCCl [Example 381, 2-Chloroethyl 2-fluoro-5-[3-(thien-2-ylcarbonyl)pyrazolo[1,5-a]pyrimidin-7-yl]phenylcarbamate] | – | – | < 100 nM | < 1 µM |
| CC(C)NC(=O)Nc1cc(-c2ccnc3c(C(=O)c4cccs4)cnn23)ccc1F [Example 382, N-{2-Fluoro-5-[3-(thien-2-ylcarbonyl)pyrazolo[1,5-a]pyrimidin-7-yl]phenyl}-N′-isopropylurea] | < 100 nM | < 1 µM | – | – |
| O=C(Nc1cccc(-c2ccnc3c(C(=O)c4cccs4)cnn23)c1)c1ccc(-n2cccc2)cc1 [Example 383, 4-(1H-pyrrol-1-yl)-N-{3-[3-(thien-2-ylcarbonyl)pyrazolo[1,5-a]pyrimidin-7-yl]phenyl}benzamide] | 100 to 1000 nM | 1 to 10 µM | – | – |
| O=C(Nc1cccc(-c2ccnc3c(C(=O)c4cccs4)cnn23)c1)c1c(Cl)cccc1Cl [Example 384, 2,6-Dichloro-N-{3-[3-(thien-2-ylcarbonyl)pyrazolo[1,5-a]pyrimidin-7-yl]phenyl}benzamide] | 100 to 1000 nM | 1 to 10 µM | – | – |
| O=C(Nc1cccc(-c2ccnc3c(C(=O)c4cccs4)cnn23)c1)c1cnccn1 [Example 385, N-{3-[3-(Thien-2-ylcarbonyl)pyrazolo[1,5-a]pyrimidin-7-yl]phenyl}pyrazine-2-carboxamide] | < 100 nM | < 1 µM | – | – |
| N#CN=C(Nc1cccc(-c2ccnc3c(C(=O)c4cccs4)cnn23)c1)Oc1ccccc1 [Example 386, Phenyl N′-cyano-N-{3-[3-(thien-2-ylcarbonyl)pyrazolo[1,5-a]pyrimidin-7-yl]phenyl}imidocarbamate] | 1000 to 20000 nM | 1 to 10 µM | – | – |
| Cn1cccc1C(=O)Nc1cccc(-c2ccnc3c(C(=O)c4cccs4)cnn23)c1 [Example 387, 1-Methyl-N-{3-[3-(thien-2-ylcarbonyl)pyrazolo[1,5-a]pyrimidin-7-yl]phenyl}-1H-pyrrole-2-carboxamide] | < 100 nM | < 1 µM | – | – |
| O=C(Nc1cc(-c2ccnc3c(C(=O)c4cccs4)cnn23)ccc1F)c1ccncc1 [Example 388, N-{2-Fluoro-5-[3-(thien-2-ylcarbonyl)pyrazolo[1,5-a]pyrimidin-7-yl]phenyl}isonicotinamide] | < 100 nM | < 1 µM | – | – |
| CC(C)NC(=S)Nc1cccc(-c2ccnc3c(C(=O)c4cccs4)cnn23)c1 [Example 389, N-Isopropyl-N′-{3-[3-(thien-2-ylcarbonyl)pyrazolo[1,5-a]pyrimidin-7-yl]phenyl}thiourea] | < 100 nM | < 1 µM | – | – |
| O=C(c1cccs1)c1cnn2c(-c3cccc(N(C(=O)c4c(Cl)cccc4Cl)C(=O)c4c(Cl)cccc4Cl)c3)ccnc12 [Example 391, 2,6-Dichloro-N-(2,6-dichlorobenzoyl)-N-{3-[3-(thien-2-ylcarbonyl)pyrazolo[1,5-a]pyrimidin-7-yl]phenyl}benzamide] | 1000 to 20000 nM | 10 to 50 µM | – | – |

| Structure (SMILES) | IC50 [1, 3] | IC50 [2, 4] | IC50 ([1]; LoVo) | IC50 ([2]; 80S14, 120 h, read-out: IC50 for 80S14 (uM)) |
| --- | --- | --- | --- | --- |
| O=C(CC1CCNCC1)Nc1cccc(-c2ccnc3c(C(=O)c4cccs4)cnn23)c1 [Example 393, 2-Piperidin-4-yl-N-{3-[3-(thien-2-ylcarbonyl)pyrazolo[1,5-a]pyrimidin-7-yl]phenyl}acetamide] | 100 to 1000 nM | 1 to 10 µM | – | – |
| CCN(CC)c1cccc(-c2ccnc3c(C(=O)c4cccs4)cnn23)c1 [Example 394, {7-[3-(Diethylamino)phenyl]pyrazolo[1,5-a]pyrimidin-3-yl}(thien-2-yl)methanone] | 100 to 1000 nM | 1 to 10 µM | – | – |
| COc1ccc(/C=C/CNc2cccc(-c3ccnc4c(C(=O)c5cccs5)cnn34)c2)cc1 [Example 396, [7-(3-{[(2E)-3-(4-Methoxyphenyl)prop-2-enyl]amino}phenyl)pyrazolo[1,5-a]pyrimidin-3-yl](thien-2-yl)methanone] | 1000 to 20000 nM | 10 to 50 µM | – | – |
| O=C(c1cccs1)c1cnn2c(-c3cccc(NC/C=C/c4ccc([N+](=O)[O-])cc4)c3)ccnc12 [Example 398, [7-(3-{[(2E)-3-(4-Nitrophenyl)prop-2-enyl]amino}phenyl)pyrazolo[1,5-a]pyrimidin-3-yl] (thien-2-yl)methanone] | 1000 to 20000 nM | 10 to 50 µM | – | – |
| O=C(c1cccs1)c1cnn2c(-c3cccc(NCC=C(c4ccccc4)c4ccccc4)c3)ccnc12 [Example 399, (7-{3-[(3,3-Diphenylprop-2-enyl)amino]phenyl}pyrazolo[1,5-a]pyrimidin-3-yl)(thien-2-yl)methanone] | 1000 to 20000 nM | 10 to 50 µM | – | – |
| CCCCC(CC)CNc1cccc(-c2ccnc3c(C(=O)c4cccs4)cnn23)c1 (stereo not shown) [Example 419, (7-{3-[(2-Ethylhexyl)amino]phenyl}pyrazolo[1,5-a]pyrimidin-3-yl)(thien-2-yl)methanone] | 1000 to 20000 nM | 1 to 10 µM | – | – |
| CN(C)c1ccc(-c2ccnc3c(C(=O)c4cccs4)cnn23)cc1NC(=O)c1ccccc1Cl [Example 421, 2-Chloro-N-{2-(dimethylamino)-5-[3-(thien-2-ylcarbonyl)pyrazolo[1,5-a]pyrimidin-7-yl]phenyl}benzamide] | 100 to 1000 nM | < 1 µM | – | – |
| CCNc1cccc(-c2ccnc3c(C(=O)c4cccs4)cnn23)c1 [Example 422, {7-[3-(Ethylamino)phenyl]pyrazolo[1,5-a]pyrimidin-3-yl}(thien-2-yl)methanone] | 100 to 1000 nM | 1 to 10 µM | – | – |
| O=C(CCCN1CCOCC1)Nc1cccc(-c2ccnc3c(C(=O)c4cccs4)cnn23)c1 [Example 423, 4-Morpholin-4-yl-N-{3-[3-(thien-2-ylcarbonyl)pyrazolo[1,5-a]pyrimidin-7-yl]phenyl}butanamide] | 100 to 1000 nM | 1 to 10 µM | – | – |
| O=C(Nc1cccc(-c2ccnc3c(C(=O)c4cccs4)cnn23)c1)OCc1cccnc1 [Example 424, Pyridin-3-ylmethyl 3-[3-(thien-2-ylcarbonyl)pyrazolo[1,5-a]pyrimidin-7-yl]phenylcarbamate] | 1000 to 20000 nM | < 1 µM | – | – |
| O=C(Nc1cccc(-c2ccnc3c(C(=O)c4cccs4)cnn23)c1)OCCCN1CCOCC1 [Example 425, 3-Morpholin-4-ylpropyl 3-[3-(thien-2-ylcarbonyl)pyrazolo[1,5-a]pyrimidin-7-yl]phenylcarbamate] | 100 to 1000 nM | 1 to 10 µM | – | – |
| CC/C=C(\C)CNc1cccc(-c2ccnc3c(C(=O)c4cccs4)cnn23)c1 [Example 426, [7-(3-{[(2E)-2-Methylpent-2-enyl]amino}phenyl)pyrazolo[1,5-a]pyrimidin-3-yl](thien-2-yl)methanone] | 100 to 1000 nM | 1 to 10 µM | – | – |
| O=C(Cc1ccncc1)Nc1cccc(-c2ccnc3c(C(=O)c4cccs4)cnn23)c1 [Example 427, 2-Pyridin-4-yl-N-{3-[3-(thien-2-ylcarbonyl)pyrazolo[1,5-a]pyrimidin-7-yl]phenyl}acetamide] | 1000 to 20000 nM | < 1 µM | – | – |
| O=C(Nc1cccc(-c2ccnc3c(C(=O)c4cccs4)cnn23)c1)OCc1ccccn1 [Example 429, Pyridin-2-ylmethyl 3-[3-(thien-2-ylcarbonyl)pyrazolo[1,5-a]pyrimidin-7-yl]phenylcarbamate] | 100 to 1000 nM | 1 to 10 µM | – | – |
| CCC(C)C(C)CNc1cccc(-c2ccnc3c(C(=O)c4cccs4)cnn23)c1 (stereo not shown) [Example 430, (7-{3-[(2,3-Dimethylpentyl)amino]phenyl}pyrazolo[1,5-a]pyrimidin-3-yl)(thien-2-yl)methanone] | 100 to 1000 nM | 1 to 10 µM | – | – |
| C/C=C(\C)CNc1cccc(-c2ccnc3c(C(=O)c4cccs4)cnn23)c1 [Example 431, [7-(3-{[(2E)-2-Methylbut-2-enyl]amino}phenyl)pyrazolo[1,5-a]pyrimidin-3-yl] (thien-2-yl)methanone] | 100 to 1000 nM | 1 to 10 µM | – | – |
